Source: article PMC11995724, “Antibiotic target discovery by integrated phenotypic and activity-based profiling of electrophilic fragments” (Cell chemical biology, 2025)

Test: in vitro
Settings: human, hek293t cells

| Compound | viability at 48 h, 25 µM |
| --- | --- |
| C=CC(=O)N(C)CC(=O)NC(C)(C)c1nc(C)cs1 [3-E14, N-methyl-N-({[2-(4-methyl-1,3-thiazol-2-yl)propan-2-yl]carbamoyl}methyl)prop-2-enamide] | 87.9% |
| O=C(CCl)c1ccc(C(F)(F)F)cc1 [10-B10, 2-chloro-1-[4-(trifluoromethyl)phenyl]ethan-1-one] | 13.9% |
| COc1ccc(C=C(C#N)C(=O)Nc2ccc(C)cc2)cc1 [9-A19, 2-cyano-3-(4-methoxyphenyl)-N-(4-methylphenyl)prop-2-enamide] | 103% |
| Cc1nc(C#N)c(N2CCN(C(=O)CCl)CC2)o1 [5-L18, 5-[4-(2-chloroacetyl)piperazin-1-yl]-2-methyl-1,3-oxazole-4-carbonitrile] | 1.74% |
| CSc1ccccc1NC(=O)CN(C)C(=O)CCl [4-L03, 2-chloro-N-methyl-N-({[2-(methylsulfanyl)phenyl]carbamoyl}methyl)acetamide] | 0.451% |
| O=C(CCl)Nc1cc(C(=O)O)cc(C(=O)O)c1 [4-B04, 5-(2-chloroacetamido)benzene-1,3-dicarboxylic acid] | 107% |
| Cc1nn(CC(C)C)c(Cl)c1C1CCCN1C(=O)CCl (stereo not shown) [5-L13, 2-chloro-1-{2-[5-chloro-3-methyl-1-(2-methylpropyl)-1H-pyrazol-4-yl]pyrrolidin-1-yl}ethan-1-one] | 0.964% |
| CC(Cl)C(=O)N1CCC(N(CC(F)(F)F)S(C)(=O)=O)CC1 (stereo not shown) [7-C07, N-[1-(2-chloropropanoyl)piperidin-4-yl]-N-(2,2,2-trifluoroethyl)methanesulfonamide] | 94.8% |
| Cc1ccc(C(CNC(=O)C(C)Cl)N2CCOCC2)s1 (stereo not shown) [7-N13, 2-chloro-N-[2-(5-methylthiophen-2-yl)-2-(morpholin-4-yl)ethyl]propanamide] | 108% |
| C=CC(=O)N1CCCCC1c1noc(C2CC2)n1 (stereo not shown) [3-K12, 1-[2-(5-cyclopropyl-1,2,4-oxadiazol-3-yl)piperidin-1-yl]prop-2-en-1-one] | 105% |
| Cc1csc(CN(CC2CCCO2)C(=O)C(C)Cl)n1 (stereo not shown) [7-E09, 2-chloro-N-[(4-methyl-1,3-thiazol-2-yl)methyl]-N-[(oxolan-2-yl)methyl]propanamide] | 94.1% |
| N#CC(=Cc1ccc(N2CCCCC2)cc1)C(=O)Nc1nccs1 [8-C04, 2-cyano-3-[4-(piperidin-1-yl)phenyl]-N-(1,3-thiazol-2-yl)prop-2-enamide] | 97.1% |
| C=CC(=O)Nc1cccc(S(=O)(=O)C2CCOCC2)c1 [3-M08, N-[3-(oxane-4-sulfonyl)phenyl]prop-2-enamide] | 96.8% |
| C=CC(=O)N1CSCC1C(=O)N1CCOCC1 (stereo not shown) [2-N21, 1-[4-(morpholine-4-carbonyl)-1,3-thiazolidin-3-yl]prop-2-en-1-one] | 74.9% |
| CC(Cl)C(=O)N(C)Cc1nccn1Cc1ccccc1 (stereo not shown) [6-J09, N-[(1-benzyl-1H-imidazol-2-yl)methyl]-2-chloro-N-methylpropanamide] | 91.5% |
| CC(C)N(Cc1ccc(N(C)C)cc1)C(=O)CCl [5-E06, 2-chloro-N-{[4-(dimethylamino)phenyl]methyl}-N-(propan-2-yl)acetamide] | 1.94% |
| O=C(CCl)Cc1cccc(Cl)c1 [10-E17, 1-chloro-3-(3-chlorophenyl)propan-2-one] | 1.29% |
| COc1ccc2ccccc2c1-c1cc(CNC(=O)C(C)Cl)on1 (stereo not shown) [7-E08, 2-chloro-N-{[3-(2-methoxynaphthalen-1-yl)-1,2-oxazol-5-yl]methyl}propanamide] | 87.9% |
| CCCc1ccc(-c2csc(NC(=O)CCl)n2)cc1 [4-C09, 2-chloro-N-[4-(4-propylphenyl)-1,3-thiazol-2-yl]acetamide] | 1.34% |
| O=C(CCl)N1N=C(c2ccsc2)CC1c1cccc(F)c1 (stereo not shown) [4-C22, 2-chloro-1-[5-(3-fluorophenyl)-3-(thiophen-3-yl)-4,5-dihydro-1H-pyrazol-1-yl]ethan-1-one] | 0.063% |
| N#C/C(C(=O)Nc1ccc(C(F)(F)F)cc1)=C(/O)C1CC1 [9-N22, (2Z)-2-cyano-3-cyclopropyl-3-hydroxy-N-[4-(trifluoromethyl)phenyl]prop-2-enamide] | 82.6% |
| CC(Cl)C(=O)N1c2ccccc2NC(=O)C1(C)C (stereo not shown) [4-C08, 4-(2-chloropropanoyl)-3,3-dimethyl-1,2,3,4-tetrahydroquinoxalin-2-one] | 69.5% |
| C=CC(=O)N(C)Cc1cncn1C [2-D09, N-methyl-N-[(1-methyl-1H-imidazol-5-yl)methyl]prop-2-enamide] | 61.2% |
| O=C(CCl)Nc1cc(S(=O)(=O)N2CCCC2)ccc1Cl [6-G14, 2-chloro-N-[2-chloro-5-(pyrrolidine-1-sulfonyl)phenyl]acetamide] | 1.44% |
| O=C(CCl)NC1CN(S(=O)(=O)c2ccc3c(c2)OCCO3)C1 [5-I16, 2-chloro-N-[1-(2,3-dihydro-1,4-benzodioxine-6-sulfonyl)azetidin-3-yl]acetamide] | 2.6% |
| C=CC(=O)N1CCN(S(=O)(=O)CC)CC1 [3-D20, 1-[4-(ethanesulfonyl)piperazin-1-yl]prop-2-en-1-one] | 106% |

| Compound | viability at 48 h, 25 µM |
| --- | --- |
| N#CC(=Cc1csc(-c2ccsc2)n1)C(=O)NC1CC1 [9-N18, 2-cyano-N-cyclopropyl-3-[2-(thiophen-3-yl)-1,3-thiazol-4-yl]prop-2-enamide] | 110% |
| C=CC(=O)Nc1ccc(F)cc1C(C)(F)F [1-C16, N-[2-(1,1-difluoroethyl)-4-fluorophenyl]prop-2-enamide] | 137% |
| CCCCNC(=O)C(C#N)=Cc1cc(F)ccc1F [8-K08, N-butyl-2-cyano-3-(2,5-difluorophenyl)prop-2-enamide] | 39.8% |
| C=CC(=O)NCc1noc2c1CCCC2 [3-B20, N-[(4,5,6,7-tetrahydro-1,2-benzoxazol-3-yl)methyl]prop-2-enamide] | 74.4% |
| N#CC(=Cc1ccncc1)C(=O)Nc1cccc(Cl)c1 [8-B19, N-(3-chlorophenyl)-2-cyano-3-(pyridin-4-yl)prop-2-enamide] | 85.5% |
| CC(C)NS(=O)(=O)c1ccc(NC(=O)C(C)Cl)cc1 (stereo not shown) [6-B10, 2-chloro-N-{4-[(propan-2-yl)sulfamoyl]phenyl}propanamide] | 98.5% |
| O=C(CCl)NCCOc1ccc(F)cc1 [6-A08, 2-chloro-N-[2-(4-fluorophenoxy)ethyl]acetamide] | 1.34% |
| C=CC(=O)N(CC)CC(=O)N1CCN(c2ccc(C#N)cc2F)CC1 [3-D03, N-{2-[4-(4-cyano-2-fluorophenyl)piperazin-1-yl]-2-oxoethyl}-N-ethylprop-2-enamide] | 74.4% |
| CC(Cl)C(=O)NC1CCc2cnn(C(C)C)c2C1 (stereo not shown) [7-H05, 2-chloro-N-[1-(propan-2-yl)-4,5,6,7-tetrahydro-1H-indazol-6-yl]propanamide] | 107% |
| C=CC(=O)N(CC)CC(=O)Nc1ccc2c(c1)nc1n2CCCCC1 [3-M19, N-[({1,8-diazatricyclo[7.5.0.0,2,7]tetradeca-2,4,6,8-tetraen-5-yl}carbamoyl)methyl]-N-ethylprop-2-enamide] | 35.8% |
| Cc1ccc(N2C(=O)C=CC2=O)c(C)c1 [10-N07, 1-(2,4-dimethylphenyl)-2,5-dihydro-1H-pyrrole-2,5-dione] | 102% |
| Cc1ccc(F)cc1NC(=O)CCl [4-O03, 2-chloro-N-(5-fluoro-2-methylphenyl)acetamide] | 0.509% |
| O=C(CCl)Nc1ccc(-c2ccccc2)cc1 [4-N10, N-{[1,1'-biphenyl]-4-yl}-2-chloroacetamide] | 0.814% |
| C=CC(=O)Nc1cccc(-c2nnnn2C(C)C)c1 [1-A16, N-{3-[1-(propan-2-yl)-1H-1,2,3,4-tetrazol-5-yl]phenyl}prop-2-enamide] | 98.3% |
| N#CC(=Cc1ccc(-c2cccc([N+](=O)[O-])c2)o1)C(=O)N1CCOCC1 [8-C07, 2-(morpholine-4-carbonyl)-3-[5-(3-nitrophenyl)furan-2-yl]prop-2-enenitrile] | 79.1% |
| CCn1ccc(CN(C)C(=O)CCl)n1 [5-K06, 2-chloro-N-[(1-ethyl-1H-pyrazol-3-yl)methyl]-N-methylacetamide] | 1.77% |
| CC(C)Oc1ccc2[nH]cc(C(=O)CCl)c2c1 [10-E03, 2-chloro-1-[5-(propan-2-yloxy)-1H-indol-3-yl]ethan-1-one] | 0.825% |
| C=CC(=O)Nc1nc(C)c(CC(C)C)s1 [1-J12, N-[4-methyl-5-(2-methylpropyl)-1,3-thiazol-2-yl]prop-2-enamide] | 0.934% |
| Cc1c(NC(=O)C(C)Cl)c(=O)n(-c2ccccc2)n1C (stereo not shown) [6-E06, 2-chloro-N-(1,5-dimethyl-3-oxo-2-phenyl-2,3-dihydro-1H-pyrazol-4-yl)propanamide] | 109% |
| Cc1c(Cl)cccc1NC(=O)C(C)Cl (stereo not shown) [6-I10, 2-chloro-N-(3-chloro-2-methylphenyl)propanamide] | 110% |
| COc1ccc(C(NC(=O)CCl)c2ccccc2)cc1 (stereo not shown) [4-J11, 2-chloro-N-[(4-methoxyphenyl)(phenyl)methyl]acetamide] | 0.827% |
| CC(Cl)C(=O)NCC1CCCN(c2nccn3cnnc23)C1 (stereo not shown) [7-M05, 2-chloro-N-[(1-{[1,2,4]triazolo[4,3-a]pyrazin-8-yl}piperidin-3-yl)methyl]propanamide] | 102% |
| CN(CCOc1ccccc1F)C(=O)CCl [6-C03, 2-chloro-N-[2-(2-fluorophenoxy)ethyl]-N-methylacetamide] | 1.83% |
| CC(NC(=O)CCl)c1ccc2ncsc2c1 (stereo not shown) [6-A18, N-[1-(1,3-benzothiazol-6-yl)ethyl]-2-chloroacetamide] | 2.3% |
| CCc1cccc(CC)c1NC(=O)C(C#N)=Cc1ccc(C)o1 [8-P11, 2-cyano-N-(2,6-diethylphenyl)-3-(5-methylfuran-2-yl)prop-2-enamide] | 108% |
| CC(Cl)C(=O)Nc1ccc([N+](=O)[O-])cc1C(F)(F)F (stereo not shown) [6-D06, 2-chloro-N-[4-nitro-2-(trifluoromethyl)phenyl]propanamide] | 98.9% |
